In ChEMBL document CHEMBL5230103, “Hydroxamic acid hybrids as the potential anticancer agents: An Overview” (Eur J Med Chem, 2020):

Columns and labels:
[1] = system: A549; assay: Cytotoxicity against human A549 cells assessed as inhibition of cell growth by MTT assay; format: functional, cell-based
[2] = system: MCF7; assay: Cytotoxicity against human MCF7 cells assessed as inhibition of cell growth by MTT assay; format: functional, cell-based
[3] = molecular target: Histone deacetylase 1 (Homo sapiens, UniProt Q13547); assay: Inhibition of HDAC1 (unknown origin)
Chain of Histone deacetylase 1 (Q13547 whole entry): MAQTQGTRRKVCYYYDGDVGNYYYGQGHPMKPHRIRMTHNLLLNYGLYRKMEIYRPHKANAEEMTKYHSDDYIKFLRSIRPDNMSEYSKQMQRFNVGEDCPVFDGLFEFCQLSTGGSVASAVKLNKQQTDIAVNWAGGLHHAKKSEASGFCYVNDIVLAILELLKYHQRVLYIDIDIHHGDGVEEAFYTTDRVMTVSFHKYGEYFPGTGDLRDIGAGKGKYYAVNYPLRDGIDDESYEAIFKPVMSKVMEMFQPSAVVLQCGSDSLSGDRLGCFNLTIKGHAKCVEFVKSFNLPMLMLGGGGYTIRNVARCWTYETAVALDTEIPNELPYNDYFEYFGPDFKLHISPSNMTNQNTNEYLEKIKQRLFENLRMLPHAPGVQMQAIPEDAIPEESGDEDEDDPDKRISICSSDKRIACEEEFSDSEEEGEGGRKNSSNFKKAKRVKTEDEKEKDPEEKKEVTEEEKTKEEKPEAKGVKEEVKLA

[4] = molecular target: Histone deacetylase 2 (Homo sapiens, UniProt Q92769); assay: Inhibition of HDAC2 (unknown origin)
Chain of Histone deacetylase 2 (Q92769 whole entry): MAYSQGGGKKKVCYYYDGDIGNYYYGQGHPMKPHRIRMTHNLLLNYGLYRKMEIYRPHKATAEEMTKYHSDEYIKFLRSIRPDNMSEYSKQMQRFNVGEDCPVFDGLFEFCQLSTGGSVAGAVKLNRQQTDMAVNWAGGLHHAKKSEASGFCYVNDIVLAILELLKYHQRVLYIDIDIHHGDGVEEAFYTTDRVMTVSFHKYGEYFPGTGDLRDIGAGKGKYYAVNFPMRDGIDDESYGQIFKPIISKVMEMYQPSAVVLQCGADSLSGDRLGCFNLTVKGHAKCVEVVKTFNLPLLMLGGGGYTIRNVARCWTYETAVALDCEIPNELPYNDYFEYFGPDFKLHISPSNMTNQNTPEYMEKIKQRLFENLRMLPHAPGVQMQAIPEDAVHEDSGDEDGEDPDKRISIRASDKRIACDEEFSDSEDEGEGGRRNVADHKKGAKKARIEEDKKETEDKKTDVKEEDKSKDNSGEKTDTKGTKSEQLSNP

[5] = molecular target: T1, Protein deacetylase HDAC6 (Homo sapiens, UniProt Q9UBN7); assay: Inhibition of HDAC6 (unknown origin)
T1 sequence (Q9UBN7 whole entry): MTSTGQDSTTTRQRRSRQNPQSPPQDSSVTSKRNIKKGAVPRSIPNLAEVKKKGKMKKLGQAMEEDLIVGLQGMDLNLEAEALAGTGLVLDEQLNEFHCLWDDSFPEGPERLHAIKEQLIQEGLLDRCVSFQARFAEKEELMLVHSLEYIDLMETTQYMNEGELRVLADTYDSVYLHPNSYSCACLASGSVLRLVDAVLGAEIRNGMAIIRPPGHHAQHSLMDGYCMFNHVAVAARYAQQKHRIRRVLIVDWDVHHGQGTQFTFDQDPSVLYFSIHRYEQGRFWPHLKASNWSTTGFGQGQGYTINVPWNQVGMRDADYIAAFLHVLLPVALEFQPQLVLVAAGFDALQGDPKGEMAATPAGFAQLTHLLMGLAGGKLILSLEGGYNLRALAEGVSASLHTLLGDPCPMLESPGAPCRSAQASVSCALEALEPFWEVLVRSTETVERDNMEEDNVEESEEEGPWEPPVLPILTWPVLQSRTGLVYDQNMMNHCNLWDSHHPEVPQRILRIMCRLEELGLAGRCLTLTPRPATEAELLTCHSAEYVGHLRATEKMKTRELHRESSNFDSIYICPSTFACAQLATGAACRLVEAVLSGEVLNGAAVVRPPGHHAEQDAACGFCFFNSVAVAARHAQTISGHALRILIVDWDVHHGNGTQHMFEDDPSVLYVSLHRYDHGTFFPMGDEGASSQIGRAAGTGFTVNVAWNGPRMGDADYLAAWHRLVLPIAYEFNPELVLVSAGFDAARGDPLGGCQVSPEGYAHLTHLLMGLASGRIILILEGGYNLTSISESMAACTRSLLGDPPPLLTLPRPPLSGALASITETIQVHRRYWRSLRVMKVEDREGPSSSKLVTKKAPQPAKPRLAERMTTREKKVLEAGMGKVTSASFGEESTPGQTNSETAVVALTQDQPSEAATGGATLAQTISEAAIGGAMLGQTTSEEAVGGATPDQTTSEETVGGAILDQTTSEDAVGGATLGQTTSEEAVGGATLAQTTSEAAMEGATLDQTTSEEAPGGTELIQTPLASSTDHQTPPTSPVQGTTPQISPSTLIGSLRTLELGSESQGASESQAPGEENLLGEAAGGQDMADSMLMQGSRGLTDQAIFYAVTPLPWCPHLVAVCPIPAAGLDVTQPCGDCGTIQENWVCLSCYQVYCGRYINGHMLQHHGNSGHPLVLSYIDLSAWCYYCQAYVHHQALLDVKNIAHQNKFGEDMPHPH

[6] = molecular target: Histone deacetylase 8 (Homo sapiens, UniProt Q9BY41); assay: Inhibition of HDAC8 (unknown origin)
Chain of Histone deacetylase 8 (Q9BY41 whole entry): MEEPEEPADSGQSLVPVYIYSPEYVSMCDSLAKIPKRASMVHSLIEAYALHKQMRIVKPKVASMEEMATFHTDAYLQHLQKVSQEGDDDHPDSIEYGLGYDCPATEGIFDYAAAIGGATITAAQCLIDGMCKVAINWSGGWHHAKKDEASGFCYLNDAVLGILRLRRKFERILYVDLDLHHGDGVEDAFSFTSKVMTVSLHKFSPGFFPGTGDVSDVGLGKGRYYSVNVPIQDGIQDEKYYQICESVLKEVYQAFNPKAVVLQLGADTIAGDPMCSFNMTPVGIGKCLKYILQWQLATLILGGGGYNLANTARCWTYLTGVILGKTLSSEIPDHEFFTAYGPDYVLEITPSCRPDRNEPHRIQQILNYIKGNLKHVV

[7] = system: MDA-MB-231; assay: Cytotoxicity against human MDA-MB-231 cells assessed as inhibition of cell growth by MTT assay; format: functional, cell-based
[8] = system: MDA-MB-231; assay: Antitumor activity against human MDA-MB-231 cells xenografted in mouse assessed as reduction on tumor volume at 20 mg/kg, ip relative to control; format: functional; set-up: scale not given: the % may be the effect or the level left
[9] = system: MCF7; assay: Potency index, ratio of vorinostat IC50 to test compound IC50 for cytotoxicity against human MCF7 cells assessed as inhibition of cell growth by MTT assay; format: functional
[10] = system: MDA-MB-231; assay: Potency index, ratio of vorinostat IC50 to test compound IC50 for cytotoxicity against human MDA-MB-231 cells assessed as inhibition of cell growth by MTT assay; format: functional
[11] = system: A549; assay: Potency index, ratio of vorinostat IC50 to test compound IC50 for cytotoxicity against human A549 cells assessed as inhibition of cell growth by MTT assay; format: functional
[12] = Cytotoxicity against human MCF-10A cells; format: toxicity, cell-based
[13] = Cytotoxicity against human MCF-10F cells; format: toxicity, cell-based
[14] = Cytotoxicity against human BEAS-2B cells; format: toxicity, cell-based
[15] = Selectivity index, ratio of IC50 for cytotoxicity against human MCF-10A cells to IC50 for cytotoxicity against human MCF7 cells; format: toxicity, cell-based; conditions: MCF-10A cells and MCF7 cells, read-out: Ratio IC50
[16] = Selectivity index, ratio of IC50 for cytotoxicity against human MCF-10A cells to IC50 for cytotoxicity against human MDA-MB-231 cells; format: toxicity, cell-based; conditions: MCF-10A cells and MDA-MB-231 cells, read-out: Ratio IC50
[17] = Selectivity index, ratio of IC50 for cytotoxicity against human MCF-10A cells to IC50 for cytotoxicity against human A549 cells; format: toxicity, cell-based; conditions: MCF-10A cells and A549 cells, read-out: Ratio IC50
[18] = Selectivity index, ratio of IC50 for cytotoxicity against human MCF-10F cells to IC50 for cytotoxicity against human MCF7 cells; format: toxicity, cell-based; conditions: MCF-10F cells and MCF7 cells, read-out: Ratio IC50
[19] = Selectivity index, ratio of IC50 for cytotoxicity against human MCF-10F cells to IC50 for cytotoxicity against human MDA-MB-231 cells; format: toxicity, cell-based; conditions: MCF-10F cells and MDA-MB-231 cells, read-out: Ratio IC50
[20] = Selectivity index, ratio of IC50 for cytotoxicity against human MCF-10F cells to IC50 for cytotoxicity against human A549 cells; format: toxicity, cell-based; conditions: MCF-10F cells and A549 cells, read-out: Ratio IC50
[21] = Selectivity index, ratio of IC50 for cytotoxicity against human BEAS-2B cells to IC50 for cytotoxicity against human MCF7 cells; format: toxicity, cell-based; conditions: BEAS-2B cells and MCF7 cells, read-out: Ratio IC50
[22] = Selectivity index, ratio of IC50 for cytotoxicity against human BEAS-2B cells to IC50 for cytotoxicity against human MDA-MB-231 cells; format: toxicity, cell-based; conditions: BEAS-2B cells and MDA-MB-231 cells, read-out: Ratio IC50
[23] = Selectivity index, ratio of IC50 for cytotoxicity against human BEAS-2B cells to IC50 for cytotoxicity against human A549 cells; format: toxicity, cell-based; conditions: BEAS-2B cells and A549 cells, read-out: Ratio IC50
[24] = molecular target: Histone deacetylase 3 (Homo sapiens, UniProt O15379); assay: Inhibition of HDAC3 (unknown origin)
Chain of Histone deacetylase 3 (O15379 whole entry): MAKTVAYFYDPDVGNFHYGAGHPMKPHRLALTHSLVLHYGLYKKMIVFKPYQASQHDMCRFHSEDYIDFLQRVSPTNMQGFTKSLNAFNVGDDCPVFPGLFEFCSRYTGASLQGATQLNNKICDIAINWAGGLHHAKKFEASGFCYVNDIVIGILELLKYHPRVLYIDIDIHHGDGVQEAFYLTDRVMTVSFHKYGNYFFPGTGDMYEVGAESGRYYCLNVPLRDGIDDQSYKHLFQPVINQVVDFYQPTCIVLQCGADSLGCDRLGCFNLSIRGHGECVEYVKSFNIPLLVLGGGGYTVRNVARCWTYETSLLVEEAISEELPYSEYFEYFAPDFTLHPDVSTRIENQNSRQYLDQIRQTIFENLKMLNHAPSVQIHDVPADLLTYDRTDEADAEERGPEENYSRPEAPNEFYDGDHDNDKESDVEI

[25] = system: HL-60; assay: Antiproliferative activity against human HL-60 cells assessed as inhibition of cell growth by MTT assay; format: functional, cell-based
[26] = Cytotoxicity against human HuT 102 cells assessed as inhibition of cell growth by MTT assay; format: functional, cell-based
[27] = system: A549; assay: Antitumor activity against human A549 cells xenografted in mouse assessed as inhibition of tumor growth at 30 mg/kg, ip relative to control; format: functional
[28] = system: HepG2; assay: Cytotoxicity against human HepG2 cells assessed as inhibition of cell growth by MTT assay; format: functional, cell-based
[29] = system: HCT-116; assay: Cytotoxicity against human HCT-116 cells assessed as inhibition of cell growth by MTT assay; format: functional, cell-based
[30] = system: SMMC-7721; assay: Cytotoxicity against human SMMC-7721 cells assessed as inhibition of cell growth by MTT assay; format: functional, cell-based
[31] = system: NCI-H1299; assay: Cytotoxicity against human NCI-H1299 cells assessed as inhibition of cell growth by MTT assay; format: functional, cell-based
[32] = system: PC-3; assay: Cytotoxicity against human PC-3 cells assessed as inhibition of cell growth by MTT assay; format: functional, cell-based
[33] = system: SW-620; assay: Cytotoxicity against human SW620 cells assessed as inhibition of cell growth by MTT assay; format: functional, cell-based
[34] = system: SW-620; assay: Potency index, ratio of vorinostat IC50 to test compound IC50 for cytotoxicity against human SW620 cells assessed as inhibition of cell growth by MTT assay; format: functional
[35] = system: PC-3; assay: Potency index, ratio of vorinostat IC50 to test compound IC50 for cytotoxicity against human PC-3 cells assessed as inhibition of cell growth by MTT assay; format: functional
[36] = system: ASPC1; assay: Potency index, ratio of vorinostat IC50 to test compound IC50 for cytotoxicity against human ASPC1 cells assessed as inhibition of cell growth by MTT assay; format: functional

Work on O=C(CCCCCC(=O)N(Cc1ccc(Br)s1)c1ccc(OCCN2CCOCC2)cc1)NO yielded an IC50 [1] of 620 nM, an IC50 [2] of 620 nM and an IC50 [3] of 1.14 nM. It also gave an IC50 [4] of 1.14 nM, an IC50 [5] of 1.14 nM and an IC50 [6] of 1.14 nM. The IC50 [7] was 620 nM, the Activity [8] was 93% and the “Ratio IC50” value [9] was 3.7. The “Ratio IC50” value [10] was 3.7, the “Ratio IC50” value [11] was 3.7 and the IC50 [12] was over 100000 nM. The IC50 [13] was over 100000 nM, the IC50 [14] was over 100000 nM and the selectivity ratio [15] was over 16.2. For the same compound, the selectivity ratio [16] was over 16.2, the selectivity ratio [17] was over 16.2 and the selectivity ratio [18] was over 16.2. The selectivity ratio [19] was over 16.2, the selectivity ratio [20] was over 16.2 and the selectivity ratio [21] was over 16.2. For the same compound, the selectivity ratio [22] was over 16.2 and the selectivity ratio [23] was over 16.2.
With O=C(/C=C/c1ccc(S(=O)(=O)Nc2cc(F)cc(F)c2)cc1)NO the IC50 [24] was 5.2 nM, the IC50 [25] was 770 nM and the IC50 [3] was 5.2 nM. The IC50 [5] was 5.2 nM, the IC50 [26] was 770 nM and the inhibition in vivo at 30 mg/kg [27] was 41.5%.
For COc1ccc(-c2nc(C(=O)N(CCN(C)C)Cc3ccc(C(=O)NO)cc3)cc3c2[nH]c2ccccc23)cc1, the IC50 [28] was 1600 nM, the IC50 [29] was 1600 nM and the IC50 [30] was 1600 nM. It also gave an IC50 [31] of 1600 nM.
Cc1ccc2c(c1)/C(=N\O)C(=O)N2CCCC(=O)NO gave an IC50 [32] of 490 nM, an IC50 [4] of 910 nM and an IC50 [33] of 490 nM. For the same compound, the “Ratio IC50” value [34] was 4.3, the “Ratio IC50” value [35] was 4.3 and the “Ratio IC50” value [36] was 4.3.
